Results: ChEMBL document CHEMBL3351784, “Synthesis and evaluation of anti-inflammatory activity of derivatives of the marine natural products fuscol and eunicol” (Bioorg Med Chem Lett, 2014)

What was measured:
[1] = test system: Mus musculus; test: Antiinflammatory activity in mouse assessed as reduction in PMA-induced ear edema at 0.1 mg/ear administered topically measured after 24 hrs relative to control; assay type: functional; set-up: scale not given: the % may be the effect or the level left
[2] = test system: Mus musculus; test: Toxicity in mouse at 0.1 mg/ear administered topically; assay type: organism-based; conditions: in vivo, topical_or_ocular
[3] = test system: Mus musculus; test: Antiinflammatory activity in mouse assessed as reduction in PMA-induced ear edema at 3 mg/ear administered topically relative to control; assay type: functional; set-up: scale not given: the % may be the effect or the level left

SMILES | Activity [1] [%] | Activity [2] | Activity [3] [%]
C/C(=C\C=C\C(C)(C)O)C(C)C | 80 | Non-toxic | 
C/C(=C\C=C\C(C)(C)O)C1CCCCC1 | 62 | Non-toxic | 
C/C(=C\C=C\C(C)(C)O)c1ccccc1 | 0 | Non-toxic | 
CC1=CCC(/C(C)=C/C=C/C(C)(C)O)CC1 (stereo not given) | 58 | Non-toxic | 
C/C(=C\C=C\C(C)(C)O)C1CC[C@@H](C)C[C@H]1O (stereo not given in full) | 71 | Non-toxic | 
C/C(=C\C=C\C(C)(C)O)C1CCc2ccccc2C1 (stereo not given) | 58 | Non-toxic | 
C=C[C@@]1(C)CC[C@H](/C(C)=C/C=C/C(C)(C)O)C[C@@H]1C(=C)C [FUSCOL] | 46 | Non-toxic | 
COc1ccc2c(c1)c(CC(=O)O)c(C)n2C(=O)c1ccc(Cl)cc1 [INDOMETHACIN] |  |  | 51
